Like-named read-outs stand apart in the source and are kept apart here.
System: ZR75 cells
Test: 3H-thymidine incorporation (DNA synthesis) / proliferation of ZR75 cells, estrogen-like activity
Assay type: cell-based, human
Conditions: for activity at 0.001 µM / activity at 0.01 µM / activity at 0.1 µM / activity at 1 µM: Homo sapiens, control water; for activity at 0.001 µM: 1 nM; for activity at 0.01 µM: 10 nM; for activity at 0.1 µM: 100 nM; for activity at 1 µM: 1000 nM, read-out: DNA synthesis (% of Control)
Excerpt: The following test was employed to determine whether resveratrol has an estrogen-like activity:
The ZR75 cell line is a ductal breast carcinoma cell line, originally isolated from malignant mammary epithelium of a person (Engel et al., Human breast carcinoma cells in continuous culture: A review., Cancer Res., 38: 4327-4339, 1978). This cell line contains receptors for estrogen, progesterone and other steroid hormones, but responds through an increase in proliferation only to estrogen. The cell line contains high affinity estrogen-specific receptors. Therefore, this cell line is used for testing estrogen-like activity (Markiewicz et al., In vitro bioassays of non-steroidal phytoestrogens, J. Steroid Biochem. Molec. Biol., 45: 399-405, 1993)
Methodology Used for Determining the Rate of DNA Synthesis in Cells
The incorporation of ^3 H-thymidine by cultured cells was used as an assay of cell proliferation (both for ZR75 cells and for keratinocytes). Thymidine is one of four deoxynucleosides which are the monomeric units of DNA. Prior to cell division of a somatic cell, the complete genome of the cell undergoing cell division is replicated. This involves large scale DNA synthesis by the cell and enables both daughter cells to receive identical copies of the genetic material. When ^3 H-thymidine is included in the culture media of cells which are synthesizing DNA in preparation for cell division then the labeled thymidine is incorporated into the newly synthesized DNA. The extent of incorporation of ^3 H-thymidine into a population of cells is proportional to the rate of DNA synthesis by this population of cells and therefore an indication of their cellular proliferation.
ZR75 cells (from American Type Culture Collection, Rockville, Md.) were grown in RPMI1640 media (from Gibco Life Technologies) with 10% fetal bovine serum (FBS) , 100 units penicillin per ml and 100 units of streptomycin per ml. All incubations were performed at 37° C. in 5% CO2. […] The cells were seeded at a density of one million per 75 cm2 flask. For the experiment, the cells were seeded in 24 well plates at 100,000 cells per ml per well.
After growing for 24 hours, the media was removed, the cells were washed with PBS (phosphate buffered saline, 0.01 M sodium phosphate, 0.138 M sodium chloride, 0.0027 M potassium chloride, pH 7.4) and 1 ml of RPMI 1640 without serum (but with streptomycin and penicillin) was added. Stock solutions of resveratrol in dimethyl sulfoxide (DMSO) and estradiol in water were prepared. […] After another 24 hours, one μCi of [methyl-3H] thymidine was added to each well. The media was removed after 24 hours. The cells were washed once in PBS, the PBS was removed completely and the cells were left on ice to incubate with 1 ml per well of 10% TCA (trichloroacetic acid) for 30 minutes. The plates were washed 3 times with 5% TCA to remove all traces of thymidine which wasn't incorporated into the cells. 500 μl of 0.1M sodium hydroxide was added to each well and the plates were incubated at room temperature for at least 30 minutes. 250 μl of each sample was transferred to scintillation vials and after adding 5 mL of counting fluid, the vials were counted for 5 minutes each on a setting for tritium. […] Values were expressed as mean of quadruplicate wells +/- standard deviation.

C[C@]12CC[C@@H]3c4ccc(O)cc4CC[C@H]3[C@@H]1CC[C@@H]2O [Estradiol, estradiol, reference compound]
activity at 0.001 µM (ZR75, EXPT 1): 220 ± 11%
activity at 0.01 µM (ZR75, EXPT 1): 210 ± 9.7%
activity at 0.1 µM (ZR75, EXPT 1): 205 ± 15.6%
activity at 1 µM (ZR75, EXPT 1): 190 ± 24.5%
activity at 0.001 µM (ZR75, EXPT 2): 133 ± 29%
activity at 0.01 µM (ZR75, EXPT 2): 152 ± 17.7%
activity at 0.1 µM (ZR75, EXPT 2): 156 ± 11.7%
activity at 1 µM (ZR75, EXPT 2): 142 ± 18.3%
proliferation of ZR 75 cells (Table 1 summary): stimulated proliferation of ZR 75 cells
